The results in this text go back to ChEMBL document CHEMBL5126506, “Coumarin-benzimidazole hybrids: A review of developments in medicinal chemistry” (Eur J Med Chem, 2022).

One data set concerns Staphylococcus aureus. Briefly: Antibacterial activity against Staphylococcus aureus assessed as zone of inhibition at 1000 ug/ml measured after 24 hrs by cup plate method. It is filed as functional. The note with it: read-out: DIZ.
The subject of a further data set is Bacillus subtilis. Briefly: Antibacterial activity against Bacillus subtilis assessed as zone of inhibition at 1000 ug/ml measured after 24 hrs by cup plate method. The format is functional. The settings on record: read-out: DIZ.
The test system of another data set is Pseudomonas aeruginosa. Briefly: Antibacterial activity against Pseudomonas aeruginosa assessed as zone of inhibition at 1000 ug/ml measured after 24 hrs by cup plate method. It is filed as functional. The settings on record: read-out: DIZ.
The next data set concerns Escherichia coli. Briefly: Antibacterial activity against Escherichia coli assessed as zone of inhibition at 1000 ug/ml measured after 24 hrs by cup plate method. The format is functional. The settings on record: read-out: DIZ.
The subject of another data set is Aspergillus niger. The experiment in a line: Antifungal activity against Aspergillus niger assessed as zone of inhibition at 1000 ug/ml measured after 24 hrs by cup plate method. The format is functional. The note with it: read-out: DIZ.
For a further data set, the system named is Aspergillus flavus. Briefly: Antifungal activity against Aspergillus flavus assessed as zone of inhibition at 1000 ug/ml measured after 24 hrs by cup plate method. The note with it: read-out: DIZ. It is filed as functional.
Another data set deals with Aspergillus terreus. Briefly: Antifungal activity against Aspergillus terreus assessed as zone of inhibition at 1000 ug/ml measured after 24 hrs by cup plate method. It is filed as functional. The note with it: read-out: DIZ.
Data set [1] relates to Rattus norvegicus. Briefly: Antiinflammatory activity in formalin induced fasted albino rat paw oedema model assessed as inhibition of paw oedema at 100 mg/kg, po measured after 4 hrs by plethysmograph analysis relative to control. Set-up: scale not given: the % may be the effect or the level left. It is filed as functional.
A short description of data set [2]: Anticancer activity against mouse L1210/0 cells assessed as cell growth inhibition measured after 3 days by CCK-8 assay. The format is functional, cell-based. The settings on record: L1210/0, 72 h.
A further data set deals with MOLT-4. Briefly: Anticancer activity against human Molt4/C8 cells assessed as cell growth inhibition measured after 3 days by CCK-8 assay. The settings on record: MOLT-4, 72 h. The format is functional, cell-based. (Tetrazolium dyes change colour on reduction, which living cells bring about.)
A further data set concerns CCRF-CEM. Briefly: Anticancer activity against human CEM/0 cells assessed as cell growth inhibition measured after 3 days by CCK-8 assay. The format is functional, cell-based. The settings on record: 72 h.
For another data set, the target named is Carbonic anhydrase 1 (Homo sapiens, UniProt P00915). Briefly: Inhibition of human carbonic anhydrase-1 by stopped flow CO2 hydrase assay.
A further data set addresses Carbonic anhydrase 2 (Homo sapiens, UniProt P00918). The experiment in a line: Inhibition of human carbonic anhydrase-2 by stopped flow CO2 hydrase assay.
The test system of a further data set is Sprivivirus cyprinus. Briefly: Antiviral activity against Carp sprivivirus infected Fathead minnow EPC cells assessed as assessed as suppression of virus-induced cytopathic effect incubated for 48 hrs by CCK-8 assay. The format is functional, organism-based. On the technique in general: Cytopathic effects are the visible damage that an infection or toxin causes in cultured cells.

A short description of data set [3]: Anticancer activity against human KATO III stomach cancer cell line assessed as cell growth inhibition measured after 3 days by CCK-8 assay. The format is functional. The note with it: 72 h, time 3 day.
The subject of the next data set is PANC-1. Briefly: Anticancer activity against human PANC-1 cells assessed as cell growth inhibition measured after 3 days by CCK-8 assay. The format is functional. The settings on record: PANC-1, 72 h, time 3 day.
For the next data set, the system named is SK-OV-3. Briefly: Anticancer activity against human SK-OV-3 cells assessed as cell growth inhibition measured after 3 days by CCK-8 assay. The format is functional. The note with it: SK-OV-3, 72 h, time 3 day.
In another data set the test system is K562. The experiment in a line: Anticancer activity against human K562 cells assessed as cell growth inhibition measured after 3 days by CCK-8 assay. The format is functional. The settings on record: K562, 72 h, time 3 day.
Data set [4] in a line: Antioxidant activity assessed as DPPH radical scavenging activity incubated for 30 mins in dark condition by spectrophotometrical analysis. The format is functional. For orientation: The DPPH test is a chemical assay of radical scavenging.
The next data set deals with HeLa. The experiment in a line: Anticancer activity against human HeLa cells assessed as cell growth inhibition by SRB method. The format is functional.
In another data set the test system is Salmonella typhi. Briefly: Antibacterial activity against Salmonella typhi ATCC 11778 assessed as bacterial growth inhibition at 50 ug/ml incubated for 24 hrs relative to control. It is filed as functional, Salmonella enterica subsp. enterica serovar Typhi. On the set-up: scale not given: the % may be the effect or the level left. The settings on record: dose 50 µg/ml.

The test system of another data set is Shigella dysenteriae. The experiment in a line: Antibacterial activity against Shigella dysenteriae ATCC 49345 assessed as bacterial growth inhibition at 50 ug/ml incubated for 24 hrs relative to control. It is filed as functional. On the set-up: scale not given: the % may be the effect or the level left. The settings on record: dose 50 µg/ml.
Data set [5] relates to Rattus norvegicus. The experiment in a line: Antiinflammatory activity in carrageenan induced rat paw oedema model assessed as inhibition of paw oedema, ip pretreated with compound for 30 mins followed by carrageenan injection measured after 3 hrs relative to control. The format is functional. On the set-up: scale not given: the % may be the effect or the level left. The note with it: time 3.5 hrs.

The test system of the next data set is MCF7. The experiment in a line: Anticancer activity against human MCF7 cells assessed as cell growth inhibition measured after 48 hrs by sulforhodamine B staining based analysis. The format is functional.
A further data set has as its system NCI-H460. The experiment in a line: Anticancer activity against human NCI-H460 cells assessed as cell growth inhibition measured after 48 hrs by sulforhodamine B staining based analysis. It is filed as functional.
The test system of a further data set is SF-268. Briefly: Anticancer activity against human SF-268 cells assessed as cell growth inhibition measured after 48 hrs by sulforhodamine B staining based analysis. It is filed as functional.
The nature of data set [6]: Cytotoxicity against human WI-38 cells assessed as cell growth inhibition measured after 48 hrs by sulforhodamine B staining based analysis. The format is toxicity.
The next data set deals with Hepatitis C virus. Briefly: Antiviral activity against HCV GT-1b infected in human Huh-5-2 cells carrying HCV subgenomic replicons assessed as inhibition of viral replication by quantitative RT-PCR assay. It is filed as functional, organism-based, Hepacivirus hominis. The settings on record: subtype 1b.
In data set [7] the test system is Rattus norvegicus. Briefly: Antiinflammatory activity in formalin induced Wistar rat paw oedema model assessed as inhibition of paw oedema administered up to 6 hrs by plethysmograph analysis. It is filed as functional, organism-based. Set-up: scale not given: the % may be the effect or the level left.

Converted amounts (≈) assume the structure as drawn.

Sequence of Carbonic anhydrase 1 (P00915 whole entry): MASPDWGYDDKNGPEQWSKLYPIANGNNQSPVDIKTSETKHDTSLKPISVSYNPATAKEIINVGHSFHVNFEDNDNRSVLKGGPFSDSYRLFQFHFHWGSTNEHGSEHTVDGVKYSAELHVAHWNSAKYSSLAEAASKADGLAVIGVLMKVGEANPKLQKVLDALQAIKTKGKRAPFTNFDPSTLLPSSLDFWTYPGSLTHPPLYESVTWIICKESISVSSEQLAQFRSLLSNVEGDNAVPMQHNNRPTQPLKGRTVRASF

As to `O=c1oc2cc(O)ccc2cc1/C=N/Nc1nc2ccccc2[nH]1`, the zone of inhibition at 1000 µg/mL in the data set on Staphylococcus aureus, with Bacillus subtilis, in the data set with Pseudomonas aeruginosa, in the data set with Escherichia coli, in the data set with Aspergillus niger and in the data set with Aspergillus flavus was 13 mm each time. The zone of inhibition at 1000 µg/mL in the data set on Aspergillus terreus was found to be 13 mm. Further, the Activity with Rattus norvegicus [1] is recorded as 39%.
`Cc1c(/C=N/Nc2nc3ccccc3[nH]2)c(=O)oc2cc(O)ccc12`: the zone of inhibition at 1000 µg/mL with Staphylococcus aureus, in the data set on Bacillus subtilis, in the data set on Pseudomonas aeruginosa, in the data set on Escherichia coli, in the data set with Aspergillus niger and in the data set with Aspergillus flavus was 13 mm each time. Further, the zone of inhibition at 1000 µg/mL in the data set with Aspergillus terreus came to 13 mm. Further, in the data set on Rattus norvegicus [1], the Activity stood at 37%.
Usually IC50 stands for the concentration at which inhibition is half-maximal. As to `Cc1ccc2oc(=O)c(-c3nc4cc(Cl)ccc4[nH]3)cc2c1`, the concentration for half-maximal inhibition (IC50) in [2] was 5.1 µg/mL (≈ 16.4 µM); with MOLT-4, 3.6 µg/mL (≈ 11.6 µM); in the data set with CCRF-CEM it was 1.9 µg/mL (≈ 6.11 µM).
For `O=c1cc(Cn2c[n+](CCCCn3c[n+](Cc4cc(=O)oc5cc(O)ccc45)c4ccccc43)c3ccccc32)c2ccc(O)cc2o1`, the figures for the IC50 against Carbonic anhydrase 1 and against Carbonic anhydrase 2 were 81 µM and 94 µM, respectively.
`O=c1oc2ccc(Cl)cc2cc1-c1nc2cc(Cl)ccc2[nH]1`: the figures for the IC50 (in [2]; in the data set with MOLT-4; with CCRF-CEM) were 0.67 µg/mL (≈ 2.02 µM), 0.44 µg/mL (≈ 1.33 µM) and 0.42 µg/mL (≈ 1.27 µM), respectively.
Take `O=c1ccc2cc(OCCCCn3cnc4ccccc43)ccc2o1`: the IC50 with Sprivivirus cyprinus amounted to 0.56 µg/mL (≈ 1.67 µM).
Usually GI50 stands for the concentration that inhibits growth by half. `CCN(CC)c1ccc2cc(-c3nc4ccccc4n3C)c(=O)oc2c1`: the GI50 in data set [3] came to 0.1 µM; with PANC-1 it was 0.1 µM; in the data set with SK-OV-3 it was 0.07 µM; in the data set on K562, 0.07 µM.
By EC50 is commonly meant the concentration at which the effect is half-maximal. As to `O=C1O[C@H]([C@@H](O)CO)C(O)=C1O` [ASCORBIC ACID], the EC50 in data set [4] worked out at 0.03 µM.
In the case of `Cc1ccc(S(=O)(=O)n2c(-c3cc(=O)oc4ccc(C)cc34)nc3ccccc32)cc1`, the concentration for 50% growth inhibition (GI50) in the data set on HeLa is 35 µg/mL (≈ 81.3 µM).
`Cc1ccc2nc(SCc3cc4ccccc4oc3=O)[nH]c2c1`: the Activity in the data set with Salmonella typhi and in the data set with Shigella dysenteriae was 100% throughout.
In the case of `Cc1ccc2c(Cc3nc4ccccc4[nH]3)cc(=O)oc2c1`, the Activity in the data set with Rattus norvegicus [5] worked out at 45%.
In the case of `O=c1oc2ccccc2c2cc(O)n3c4ccccc4nc3c12`, the GI50 was 44 µM with MCF7, 29 µM in the data set with NCI-H460 and 20.6 µM with SF-268. For the same molecule, in data set [6], the GI50 at 48 h was found to be 28.2 µM.
Take `COc1cccc2cc(CSc3nc4cc(Cl)c(Cl)cc4[nH]3)c(=O)oc12`: in the data set on Hepatitis C virus, the EC50 turned out to be 3.6 µM.
`Cc1cn2c3ccccc3nc2c2c(=O)oc3ccccc3c12`: the GI50 in the data set on MCF7 came to 26.6 µM; in the data set with NCI-H460, 29.3 µM; with SF-268, 18.4 µM. Also, the 50% growth inhibitory concentration (GI50) at 48 h in [6] was 68.2 µM.
In the case of `CC(=O)OC[C@H]1O[C@@H](n2c(SCc3cc4ccccc4oc3=O)nc3cc(Cl)c(Cl)cc32)[C@H](OC(C)=O)[C@@H](OC(C)=O)[C@@H]1OC(C)=O`, in the data set on Hepatitis C virus, the EC50 came to 3.1 µM.
As for `O=c1oc2ccc(Br)cc2cc1-c1nc2ccccc2[nH]1`, the Activity in the data set on Rattus norvegicus [7] was 45.45%.
With `O=c1cc(C[n+]2cn(Cc3ccc4ccccc4c3)c3ccccc32)c2ccc(O)c(O)c2o1`, the half-inhibitory concentration (IC50) at Carbonic anhydrase 1 was determined as 4.99 µM; against Carbonic anhydrase 2, 6.01 µM.
`O=c1cc(Cc2nc3ccccc3[nH]2)c2cccc([N+](=O)[O-])c2o1`: in [4], the EC50 turned out to be 0.17 µM.
Regarding `O=C(Cc1cc(=O)oc2c([N+](=O)[O-])cccc12)Nc1nc2ccccc2[nH]1`, the half-maximal effective concentration (EC50) in data set [4] came out at 0.08 µM.
